Earlier results, collected in US6784266B2, “Dual stimuli-responsive hydrogels and their synthetic methods” (Korea Institute of Science and Technology, priority 2002, dated 2004).

Conditions: pKa stated for the sulfonamide reagent; no measurement method described

For COc1ccc(NS(=O)(=O)c2ccc(N)cc2)nn1 [sulfamethoxypyridazine], the pKa is given as 6.7.
